Data from patent US20010044151A1, “Ligands for modulating the expression of exogenous genes via an ecdysone receptor complex” (priority 1998, published 2001).

What follows are molecules tested against CfEcR(CDEF)-GST and CfUSP-GST fusion proteins (assay: Competitive 3H-ponasterone A binding assay, bacterial GST fusion proteins). Settings: bacterial CfEcR(CDEF)-GST/CfUSP-GST extracts, 3H-ponasterone A displacement.
Design: species or system Choristoneura fumiferana
Excerpt: Bacterial glutathion-S-transferase (GST) fusion proteins of the spruce budworm (Choristoneura fumiferana) EcR (CfEcR), containing CDEF domains only, and ultraspiracle protein (CfUSP) were also used in radioligand displacement assays. cDNA encoding the CDEF domains of CfEcR were constructed following PCR amplification using primers that contain BamH1 and EcoRI sites (Perera S C, M Sundaram, Krell P J, Retnakaran A, Dhadialla T S, S R Palli, 1999 Arch. Insect Biochem. Physiol. 41 In Press). The PCR produce was digested with BamHI and EcoRI and cloned into pGEX-3X vector obtained from Pharmacia Biotech. CfUSP coding region was amplified using primers that contain BamH1 and EcoRI sites and cloned into to pGEX-2T vector obtained from Pharmacia Biotech. E. coli transformed with each of the two vectors were grown and induced to produce the fusion proteins as detailed in the Pharmacia Biotech GST-technical bulletin.
(§1) The concentrations of competitors that inhibited 50% of tritiated ponasterone A binding (IC50) was determined by incubating Kc or Plodia nuclear extracts or extracts of bacteria producing CfEcR(CDEF)-GST and CfUSP-GST fusions proteins with ^3H-ponasterone A (66,000 dpm per reaction) in the presence of a range of concentrations (0.1 nM to 10 μM) of test compounds. In the case of binding reactions using bacterial fusion proteins, 20 or one μl extract of bacteria producing CfEcR(CDEF)-GST or CfUSP-GST fusion proteins, respectively, were included per binding reaction. The assay conditions and determination of total and non-specific binding was as described above. The volume of competitor in solvent, like that for 20E or solvent alone, was kept at 1% of total reaction volume by using a 100 fold concentrated stock solution (i.e. a 100 fold dilution of stock solutions). The remainder of the assay was as described above. Each reaction was carried out in duplicate per concentration per test compound. […]

Q: For `Cc1cc(C)cc(C(=O)N(NC(=O)c2cccc(O)c2C)C(C)(C)C)c1` [Ligand 14], which “Bacterial CfECR log(1/IC50)” value is on record?
A: 8.61

Q: Which “Bacterial CfECR log(1/IC50)” value does the source give for `Cc1cc(CO)cc(C(=O)N(NC(=O)c2cccc(O)c2C)C(C)(C)C)c1` [Ligand 15] here?
A: 8.49

These molecules were tested against T1, ecdysteroid receptor complex in Plodia interpunctella (IAL-PID2) nuclear extract (Plodia interpunctella, UniProt Q6RVD3) (assay: Competitive 3H-ponasterone A binding assay, Plodia nuclear ecdysone receptor extract). Settings: 3H-ponasterone A displacement.
T1 sequence (Q6RVD3 1-541): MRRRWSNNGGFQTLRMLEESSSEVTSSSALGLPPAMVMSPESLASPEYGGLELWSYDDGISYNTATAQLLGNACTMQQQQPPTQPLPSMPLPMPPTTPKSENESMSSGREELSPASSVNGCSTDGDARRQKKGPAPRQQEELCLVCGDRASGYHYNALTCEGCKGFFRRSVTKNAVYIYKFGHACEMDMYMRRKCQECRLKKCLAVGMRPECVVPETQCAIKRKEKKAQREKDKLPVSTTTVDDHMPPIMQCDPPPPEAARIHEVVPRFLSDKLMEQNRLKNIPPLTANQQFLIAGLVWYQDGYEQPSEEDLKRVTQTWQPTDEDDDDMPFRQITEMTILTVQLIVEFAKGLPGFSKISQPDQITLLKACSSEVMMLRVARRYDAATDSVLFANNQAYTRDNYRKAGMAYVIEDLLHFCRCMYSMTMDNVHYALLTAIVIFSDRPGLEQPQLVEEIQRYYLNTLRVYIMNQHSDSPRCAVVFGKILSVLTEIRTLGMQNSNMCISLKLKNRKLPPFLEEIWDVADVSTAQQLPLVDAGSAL
T1 sequence (Q6IVK1 1-415 partner): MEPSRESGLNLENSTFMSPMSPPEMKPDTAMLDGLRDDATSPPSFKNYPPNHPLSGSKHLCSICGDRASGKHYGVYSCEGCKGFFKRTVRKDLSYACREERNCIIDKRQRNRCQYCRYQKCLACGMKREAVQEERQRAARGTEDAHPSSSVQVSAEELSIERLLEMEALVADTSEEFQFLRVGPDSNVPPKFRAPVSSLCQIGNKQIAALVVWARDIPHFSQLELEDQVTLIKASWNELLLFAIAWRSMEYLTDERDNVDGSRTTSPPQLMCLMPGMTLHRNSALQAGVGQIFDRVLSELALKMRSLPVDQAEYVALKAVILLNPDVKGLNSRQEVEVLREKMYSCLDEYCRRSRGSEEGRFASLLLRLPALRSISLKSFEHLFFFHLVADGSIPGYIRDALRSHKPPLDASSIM
Experimental: The cell line IAL-PID2, derived from imaginal wing discs of the lepidopteran Plodia interpunctella was obtained from H. Oberlander and maintained as described (Lynn, E. E. and Oberlander, H., (1983), J. Insect Physiology, 29, 591-96). A 300 ml stationary phase culture of P. interpunctella cells was centrifuged at 700×g for 10 mm at room temperature to pellet the cells. The supernatant was aspirated and the cellular pellet resuspended in 35 ml TMT (TM buffer with 0.1% Triton X-100). The suspension was homogenized with twenty up and down strokes of a Dounce homogenizer on ice. Homogenate was incubated on ice for 10 minutes and then centrifuged for 15 min at 900×g. The pellet was resuspenced in 15 ml TM buffer and centrifuged at 2,300×g. This pellet was extracted in TMK buffer (TM buffer with 800 mM KCl) by using a glass rod to crush the pellet until a gelatinous slurry was formed and incubated on ice for 15 minutes. The extract was centrifuged at 100,000×g in a swinging bucket rotor for 60 minutes. The supernatant, which constituted the nuclear extract, was desalted on a 10 DG desalting column (Bio-Rad, 732-2010) equilibrated with T-buffer. The total protein concentration in the nuclear extract was adjusted to 5 mg per ml with T-buffer containing 1 mM DTT.
^3H ponasterone A, a potent phytoecdysteroid, (66,000 dpm; specific activity 170 Ci/mmole; NEN Life Science Products, Boston, Mass.) was mixed with 100 μl Kc cytosolic or Plodia nuclear ecdysone receptor extracts in […] glass test tubes in the absence or presence of 10 μM unlabelled 20-hydroxyecdysone (20E) to obtain an estimate of total or non-specific respectively, binding of tritiated ponasterone A. The tubes were vortexed and incubated overnight at 4° C. for Kc cytosolic extracts or 1.5 hours for Plodia nuclear extracts for binding reactions to reach equilibrium. At the end of equilibrium binding times, the bound tritiated ponasterone A was separated from the unbound by addition of ice-cold 600 μl or 300 μl dextran-coated charcoal solution (500 mg of Sigma HCL-washed activated charcoal, 50 mg Pharmacia Dextran T70, 50 ml T-buffer) to Kc or Plodia extracts, respectively. The tubes were vortexed briefly and centrifuged at 7,000×g to pellet the charcoal. The supernatant, 600 μl or 300 μl for Kc or Plodia extract reactions, respectively, containing tritiated ponasterone A bound to proteins, was aspirated into liquid scintillation vials containing 5 ml scintillation cocktail (ReadySafe®, Beckmann) each The mixture was vortexed and the amount of total or non-specifically bound radioactivity measured in a Beckmann LS500 liquid scinitllation counter with a 60% counting efficiency for tritium.
as §1, with “compound. Specific binding of ^3H-ponasterone A was determined by subtracting non-specific binding (that obtained in the presence of 10 μM 20E) from total (no competitor) or competed radioactivity bound.” for “compound.”

Q: `COc1cccc(C(=O)NN(C(=O)c2cc(C)cc(C)c2)C(C)(C)C)c1C(C)C` [Ligand 11] was tested. Which “Plodia log(1/IC50)” value did it give?
A: 8.93

Q: With `COc1cccc(C(=O)NN(C(=O)c2cc(Cl)cc(Cl)c2)C(C)(C)C)c1C` [Ligand 9] as the molecule, how does the “Plodia log(1/IC50)” value read?
A: 9.00

Q: With `CCc1c(OC)cccc1C(=O)NN(C(=O)c1cc(C)cc(Cl)c1)C(C)(C)C` [Ligand 10] as the molecule, how does the “Plodia log(1/IC50)” value read?
A: 8.80

Q: With `CCOc1cccc(C(=O)NN(C(=O)c2cc(C)cc(C)c2)C(C)(C)C)c1C` [Ligand 6] as the molecule, how does the “Plodia log(1/IC50)” value read?
A: 8.82

Q: With `CCc1c(C(=O)NN(C(=O)c2cc(C)cc(C)c2)C(C)(C)C)ccc2c1OCCO2` [Ligand 7] as the molecule, how does the “Plodia log(1/IC50)” value read?
A: 8.78
